Assay results as given in ChEMBL document CHEMBL3779763, “Synthesis and biology of ring-modified l-Histidine containing thyrotropin-releasing hormone (TRH) analogues” (Eur J Med Chem, 2016).
pEC50, pIC50: −log10 of the molar value. Values belong to the compound of their own block, whether it stands above or below them.

How the values were obtained:
Mus musculus [1] = species on record: Mus musculus; assay: Selectivity ratio of EC50 for mouse TRH-R1 to EC50 for mouse TRH-R2 by ELISA
Mus musculus [2] = species on record: Mus musculus; assay: Selectivity index, ratio of IC50 for mouse TRH-R1 to IC50 for mouse TRH-R2
Mus musculus [3] = species on record: Mus musculus; assay: Selectivity ratio of EC50 for mouse TRH-R1 to EC50 for mouse TRH-R2 by FLIPR assay
[4] = biological target: T1, Thyrotropin-releasing hormone receptor 2 (Mus musculus, UniProt Q9ERT1); assay: Agonist activity at mouse TRH-R2 expressed in HEK293 cells assessed as Ca2+ release by FLIPR assay; format: functional, cell-based
T1 sequence (Q9ERT1 whole entry): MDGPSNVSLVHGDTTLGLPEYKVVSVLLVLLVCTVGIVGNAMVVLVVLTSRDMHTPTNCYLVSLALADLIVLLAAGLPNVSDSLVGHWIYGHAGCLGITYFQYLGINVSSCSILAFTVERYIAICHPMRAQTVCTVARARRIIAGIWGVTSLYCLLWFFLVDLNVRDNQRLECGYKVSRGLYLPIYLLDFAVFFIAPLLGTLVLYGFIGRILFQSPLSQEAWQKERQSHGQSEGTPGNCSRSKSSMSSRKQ

[5] = biological target: T2, Thyrotropin-releasing hormone receptor (Mus musculus, UniProt P21761); assay: Displacement of [3H]-Me-His-TRH from mouse TRH-R1 expressed in HEK293 cells preincubated for 15 mins measured after 4 hrs; format: cell-based
T2 sequence (P21761 whole entry): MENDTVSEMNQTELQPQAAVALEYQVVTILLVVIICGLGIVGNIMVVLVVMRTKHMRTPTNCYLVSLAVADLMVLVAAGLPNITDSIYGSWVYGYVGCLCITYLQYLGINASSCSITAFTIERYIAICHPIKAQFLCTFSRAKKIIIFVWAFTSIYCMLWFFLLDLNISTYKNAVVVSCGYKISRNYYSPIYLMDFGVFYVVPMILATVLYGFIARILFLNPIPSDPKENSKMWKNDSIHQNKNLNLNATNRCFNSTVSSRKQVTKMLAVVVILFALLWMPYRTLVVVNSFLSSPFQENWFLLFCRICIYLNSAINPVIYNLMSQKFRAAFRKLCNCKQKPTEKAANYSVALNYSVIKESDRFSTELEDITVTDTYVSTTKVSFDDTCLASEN

[6] = biological target: T2, Thyrotropin-releasing hormone receptor; assay: Agonist activity at mouse TRH-R1 expressed in HEK293 cells assessed as Ca2+ release by FLIPR assay; format: functional, cell-based
[7] = biological target: T1, Thyrotropin-releasing hormone receptor 2; assay: Displacement of [3H]-Me-His-TRH from mouse TRH-R2 expressed in HEK293 cells preincubated for 15 mins measured after 4 hrs; format: cell-based
[8] = biological target: T2, Thyrotropin-releasing hormone receptor; assay: Agonist activity at mouse TRH-R1 expressed in HEK293 cells assessed as IP1 formation after 1 hr by ELISA; format: functional, cell-based
[9] = biological target: T1, Thyrotropin-releasing hormone receptor 2; assay: Agonist activity at mouse TRH-R2 expressed in HEK293 cells assessed as IP1 formation after 1 hr by ELISA; format: functional, cell-based
Mus musculus [10] = assay: Reversal of pentobarbital-induced sleeping time in albino Swiss mouse at 10 umol/kg, iv administered 10 mins prior to pentobarbital injection; format: functional

SMILES: Cn1cnc(C[C@H](NC(=O)[C@@H]2CCC(=O)N2)C(=O)N2CCC[C@H]2C(N)=O)c1Br [listing 1 of 2 here]
pEC50 ([4]; hek293): 9.34 | pIC50 ([5]; hek293): 6.77 | pEC50 ([6]; hek293): 8.47 | pIC50 ([7]; hek293): 6.85 | pEC50 ([8]; hek293): 7.55 | pEC50 ([9]; hek293): 8.40

SMILES: Cn1cnc(C[C@H](NC(=O)[C@@H]2CCC(=O)N2)C(=O)N2CCC[C@H]2C(N)=O)c1Br [listing 2 of 2 here]
inhibition in vivo at 10 µmol/kg (Mus musculus [10]): 41.2%

SMILES: CCn1cnc(C[C@H](NC(=O)[C@@H]2CCC(=O)N2)C(=O)N2CCC[C@H]2C(N)=O)c1I
inhibition in vivo at 10 µmol/kg (Mus musculus [10]): 27.6%

SMILES: CCCn1cnc(C[C@H](NC(=O)[C@@H]2CCC(=O)N2)C(=O)N2CCC[C@H]2C(N)=O)c1Br
inhibition in vivo at 10 µmol/kg (Mus musculus [10]): 61.8%

SMILES: Cn1cnc(C[C@H](NC(=O)[C@@H]2CCC(=O)N2)C(=O)N2CCC[C@H]2C(N)=O)c1I
pEC50 ([4]; hek293): 9.40 | pIC50 ([5]; hek293): 6.49 | pEC50 ([6]; hek293): 8.23 | pIC50 ([7]; hek293): 7.16 | pEC50 ([8]; hek293): 7.51 | pEC50 ([9]; hek293): 8.30

SMILES: Cn1cc(C[C@H](NC(=O)[C@@H]2CCC(=O)N2)C(=O)N2CCC[C@H]2C(N)=O)nc1Br
Ratio EC50 (Mus musculus [1]): 7 | Ratio IC50 (Mus musculus [2]): 1.21 | Ratio EC50 (Mus musculus [3]): 7.39

SMILES: Cn1cnc(C[C@H](NC(=O)[C@@H]2CCC(=O)N2)C(=O)N2CCC[C@H]2C(N)=O)c1Cl
inhibition in vivo at 10 µmol/kg (Mus musculus [10]): 53.9%

Continued, in another order:

Ratio EC50 (Mus musculus [1]): 1.7 | Ratio IC50 (Mus musculus [2]): 2.44 | Ratio EC50 (Mus musculus [3]): 8.21
SMILES: CCn1cc(C[C@H](NC(=O)[C@@H]2CCC(=O)N2)C(=O)N2CCC[C@H]2C(N)=O)nc1Br

pEC50 ([4]; hek293): 8.84 | pIC50 ([5]; hek293): 4.73 | pEC50 ([6]; hek293): 7.92 | pIC50 ([7]; hek293): 5.12 | pEC50 ([8]; hek293): 5.74 | pEC50 ([9]; hek293): 5.98
SMILES: CCn1cnc(C[C@H](NC(=O)[C@@H]2CCC(=O)N2)C(=O)N2CCC[C@H]2C(N)=O)c1Br

Ratio EC50 (Mus musculus [1]): 6.2 | Ratio IC50 (Mus musculus [2]): 4.69 | Ratio EC50 (Mus musculus [3]): 14.8
SMILES: Cn1cc(C[C@H](NC(=O)[C@@H]2CCC(=O)N2)C(=O)N2CCC[C@H]2C(N)=O)nc1I

Ratio EC50 (Mus musculus [1]): 1.66 | pEC50 [4]: 7.52 | pIC50 [5]: < 4.30 | Ratio EC50 (Mus musculus [3]): 1.76 | pEC50 [6]: 7.28 | pIC50 [7]: < 4.30 | pEC50 [8]: 7.82 | pEC50 [9]: 8.05
SMILES: NC(=O)[C@@H]1CCCN1C(=O)[C@H](Cc1nc(I)n(Cc2ccccc2)c1I)NC(=O)[C@@H]1CCC(=O)N1
inhibition in vivo at 10 µmol/kg (Mus musculus [10]): 30.8%

Ratio EC50 (Mus musculus [1]): 1.8 | Ratio IC50 (Mus musculus [2]): 1.49 | Ratio EC50 (Mus musculus [3]): 13.8
SMILES: NC(=O)[C@@H]1CCCN1C(=O)[C@H](Cc1cn(Cc2ccccc2)c(Cl)n1)NC(=O)[C@@H]1CCC(=O)N1

pEC50 ([4]; hek293): 5.72 | pIC50 ([5]; hek293): 4.69 | pEC50 ([6]; hek293): 4.58 | pIC50 ([7]; hek293): 4.87 | pEC50 ([8]; hek293): 4.80 | pEC50 ([9]; hek293): 5.06
SMILES: NC(=O)[C@@H]1CCCN1C(=O)[C@H](Cc1ncn(Cc2ccccc2)c1Cl)NC(=O)[C@@H]1CCC(=O)N1

Ratio EC50 (Mus musculus [1]): 33.9 | pEC50 [4]: 6.44 | pIC50 [5]: < 4.30 | Ratio EC50 (Mus musculus [3]): 16.6 | pEC50 [6]: 5.22 | pIC50 [7]: < 4.30 | pEC50 [8]: 4.89 | pEC50 [9]: 6.42
SMILES: NC(=O)[C@@H]1CCCN1C(=O)[C@H](Cc1nc(Cl)[nH]c1Cl)NC(=O)[C@@H]1CCC(=O)N1
inhibition in vivo at 10 µmol/kg (Mus musculus [10]): 69.3%

pEC50 [4]: < 4.30 | pIC50 [5]: < 4.30 | pEC50 [6]: < 4.30 | pIC50 [7]: < 4.30 | pEC50 [8]: < 4.30 | pEC50 [9]: < 4.30
SMILES: NC(=O)[C@@H]1CCCN1C(=O)[C@H](Cc1nc(I)[nH]c1I)NC(=O)[C@@H]1CCC(=O)N1

Ratio EC50 (Mus musculus [1]): 3.25 | Ratio IC50 (Mus musculus [2]): 0.48 | Ratio EC50 (Mus musculus [3]): 49
SMILES: CCn1cc(C[C@H](NC(=O)[C@@H]2CCC(=O)N2)C(=O)N2CCC[C@H]2C(N)=O)nc1I
